The results in this text go back to paper PMC3480357, “Fragment-Hopping-Based Discovery of a Novel Chemical Series of Proto-Oncogene PIM-1 Kinase Inhibitors” (PLoS ONE, 2012).

The target in one assay is PIM-2 (Homo sapiens, UniProt Q9P1W9). In words: PIM-2 kinase ADP Hunter Plus assay. Type of assay: biochemical. The following applies: 100 µM ATP.
A further assay addresses PIM-3 (Homo sapiens, UniProt Q86V86). In words: PIM-3 kinase ADP Hunter Plus assay. It counts as biochemical. The following applies: 100 µM ATP, Figure 1. On the procedure: Kinase activity was measured with the commercial ADP Hunter™ Plus assay (DiscoveRx Ref. #33-016), a homogeneous assay measuring ADP accumulation, as a universal product of kinase activity. The assay was conducted following the manufacturer’s recommendations and adapting the protein and substrate concentrations for optimal conditions. The kinase assay buffer was 15 mM HEPES, pH 7.4, 20 mM NaCl, 1 mM EGTA, 0.02% Tween-20, 10 mM MgCl2 and 0.1 mg/ml BGG (bovine γ-globulin). All PIM kinase assays were performed with 100 µM PIMtide ([…]) as the peptide substrate and 100 µM ATP. The protein concentrations were 50, 350 and 500 ng/µl for PIM-1, 2 and 3, respectively. To calculate the IC50 of the ETP-compounds, serial 1∶5 dilutions were prepared and the reaction was started with the addition of ATP. The reaction was incubated for 1 h at 25°C. Reagents A and B (DiscoveRx) were sequentially added to the wells, and the plates were incubated for 30 min at 37°C. Fluorescence counts were read in a Victor instrument (Perkin Elmer) with the recommended settings (544 and 580 nm as the excitation and emission wavelengths, respectively). Values were plotted against the inhibitor concentrations and fit to a sigmoid dose–response curve using GraphPad software.

PIM-2, sequence (Q9P1W9 whole entry): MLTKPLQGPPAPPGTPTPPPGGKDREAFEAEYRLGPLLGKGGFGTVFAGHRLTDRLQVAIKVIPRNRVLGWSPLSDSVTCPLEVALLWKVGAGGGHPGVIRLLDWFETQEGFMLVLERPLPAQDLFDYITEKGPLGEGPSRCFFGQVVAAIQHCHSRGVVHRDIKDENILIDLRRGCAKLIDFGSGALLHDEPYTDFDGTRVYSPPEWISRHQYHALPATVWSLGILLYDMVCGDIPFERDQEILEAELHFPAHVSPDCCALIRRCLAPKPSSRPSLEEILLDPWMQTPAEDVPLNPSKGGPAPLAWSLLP

In the case of `CC(=O)c1cccc(-c2cnc3ccc(NCC4CC4)nn23)c1` [Compound 2, reference compound], the IC50 at PIM-2 is 443 nM; on PIM-3, 1000 nM.

A word on the IC50: it is the concentration that gives 50% inhibition.
